Laboratory results from patent US20110105417A1, “Drug Conjugates” (The Curators of the University of Missouri, priority 2008, published 2011).

Legend:
MDCK-WT cells = experiment: Non-radioactive uptake study of B-10HD-ACV on MDCK-WT cells; type: in vitro ADME, dog; conditions: 200 μM; for Average uptake: DPBS pH 5.4, 90 minutes; for Relative fold uptake: relative to acyclovir
Description: Non-radioactive uptake studies were performed for the above prodrugs on MDCK-WT cells after growing them for 7 days. The medium was aspirated and the cells were washed 3 times after an interval of 5 minutes each with DPBS pH 5.4. […] Uptake was carried out for 90 minutes. Uptake was terminated using ice cold DPBS pH 5.4. The cells were then washed 2 times using distilled deionized water and lysed overnight at −80° C. with 500 uL of distilled deionized water in each well. The samples were analyzed using LC-MS/MS.

Caco-2 cells monolayer = experiment: Non-radioactive cellular uptake study, Caco-2; conditions: 90 minutes (FIG. 4)
[1] = test system: MDCK-MDR1 cell monolayers
Description: The medium was changed everyday after reaching confluence.
The experiments were carried out for 90 minutes.

MDCK-MDR1 cell monolayer = experiment: Non-radioactive cellular uptake study, MDCK-MDR1; conditions: pH 5.5, 90 minutes (FIG. 2)

**Q.** What does the source list for `Nc1nc2c(ncn2COCCOC(=O)CCCCCCCCCO)c(=O)[nH]1` [10HD-ACV, 2-((2-amino-6-oxo-1,6-dihydropurin-9-yl)methoxy)ethyl 10-hydroxy decanoate]?
**A.** Average uptake (MDCK-WT cells): 199.74 pmoles/mg protein/min; Relative fold uptake (MDCK-WT cells): 43.73

**Q.** For `Nc1nc2c(ncn2COCCO)c(=O)[nH]1` [ACV, 9-(2-hydroxyethoxymethyl)guanine, reference compound], which Average uptake (MDCK-WT cells) is on record?
**A.** 4.56 pmoles/mg protein/min

**Q.** What about the Relative fold uptake (MDCK-WT cells) of the same compound?
**A.** 1

**Q.** Which “increase of uptake compared to ACV” value (Caco-2 cells monolayer) does the source give for `CCCCCCC(CCCCCCCCCCC(=O)OCCOCn1cnc2c(=O)[nH]c(N)nc21)OC(=O)CCCC[C@@H]1SC[C@@H]2NC(=O)N[C@@H]21` (stereo partly drawn) [B-12HS-ACV, Biotin-12-Hydroxystearicacid-ACV] here?
**A.** 8.3 times

**Q.** `Nc1nc2c(ncn2COCCOC(=O)CCCC[C@@H]2SC[C@@H]3NC(=O)N[C@@H]32)c(=O)[nH]1` [B-ACV, Biotin-ACV] was tested. Which “uptake in the presence of biotin versus in its absence” value [1] did it give?
**A.** significantly lesser

**Q.** For `CCCCCC[C@H](C/C=C\CCCCCCCC(=O)OCCOCn1cnc2c(=O)[nH]c(N)nc21)OC(=O)CCCC[C@@H]1SC[C@@H]2NC(=O)N[C@@H]21` [B-R-ACV, Biotin-Ricinoleic acid-Acyclovir], which “increase of uptake compared to ACV” value (MDCK-MDR1 cell monolayer) is on record?
**A.** 9.5 times

**Q.** How did the “increase of uptake compared to ACV” value (Caco-2 cells monolayer) turn out when `CCCCCC[C@@H](O)C/C=C\CCCCCCCC(=O)OCCOCn1cnc2c(=O)[nH]c(N)nc21` [R-ACV, Ricinoleicacid-ACV] was run?
**A.** 1.4 times

**Q.** And the “increase of uptake compared to ACV” value (MDCK-MDR1 cell monolayer)?
**A.** four
